Experimental data as given in patent publication EP0508004A1, “Phenylsulfonylalkanoic acid compounds” (Kissei Pharmaceutical Co., Ltd., priority 1991, dated 1992).

Assays:
[1] = system: Gallbladder strips; assay: CCK-antagonism in isolated gallbladder (contraction of strips induced by CCK-8); type: cell-based, Hartley guinea-pig; settings: Cavia porcellus; antagonism of gallbladder contraction induced by 10⁻⁸ M CCK-8, guinea-pig strips, Krebs solution, 37°C; read-out: IC₅₀
Experimental: Gallbladder strips isolated from male Hartley guinea-pig were prepared and suspended in Magnus bath filled with Krebs solution (1 g of initial tension). The solution kept at 37°C was aerated with a mixture of 95% O₂ and 5% CO₂. The isometric contraction of strips was recorded through a force-displacement transducer. Antagonism by test drugs against gallbladder contraction induced by 10⁻⁸ M CCK-8 was examined and IC₅₀ value was calculated.

[2] = system: amylase secretion; assay: Effect on amylase secretion in rats (stimulated by CCK-8); type: in vivo; settings: Rattus norvegicus, sc; intraduodenal administration 30 minutes before CCK-8 (10 µg/kg, subcutaneous); anesthetized male Wistar rats; amylase in biliopancreatic juice; read-out: ED₅₀
Experimental: Male Wistar rats were anesthetized with urethane (1.5 g/kg, S.C.), and tracheal cannula was inserted. Biliopancreatic juice was collected from the cannula which had been inserted into the common bile duct. Thirty minutes after intraduodenal administration of test drug, anylase secretion was stimulated by subcutaneous injection of CCK-8 (10 µg/kg). Amylase concentration in the sample collected every 30 minutes during experiment was assayed using Amylase B Test (Wako), and ED₅₀ value was calculated.

SMILES	IC50 [1]	ED50 [2]
CCCCCN(CCCCC)C(=O)C(CC(=O)O)CS(=O)(=O)c1ccc(Cl)c(Cl)c1 (racemic) [Compound 29]	37 µM	9.9 mg/kg
CCCCCCN(CCCCCC)C(=O)C(CCC(=O)O)CS(=O)(=O)c1ccc(Cl)c(Cl)c1 (racemic) [Compound 33]	–	7.1 mg/kg
